Assay [1] deals with dispersed islet cells of donors with T1D. The assay can be described thus: Insulin secretion from dispersed islet cells of donors with T1D.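 On Secretion of insulin: insulin concentration in collected medium by Lumit immunoassay.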 It counts as cell-based, human. The conditions noted are these: for Secretion of insulin: dispersed islet cells, T1D donors, one value per donor, Figure 2J. The method, then:
Pancreata of nondiabetic C57BL/6J mice were digested using collagenase P (Roche Diagnostics, catalog 11213873001), and islets were manually picked up using a stereomicroscope (ZEISS Stemi 305). […] Isolated mouse islets or provided human islets were dispersed as described ([28]). Briefly, 100–120 islets were washed 2 times using modified HBSS, then dispersed in 600 μL Accutase (Innovative Cell Technologies, catalog AT-104) by gently pipetting up and down for 7 minutes at 37°C. […] Following refreshing of KRBH, cells were dispensed in 8 microfuge tubes (2,000 cells/tube) and treated with WCDD301, preclustered Ephrin-A5 Fc, or preclustered Fc in the presence or absence of the competitive inhibitor of EphA4 receptor, rhyncophylline ([60]) (MilliporeSigma, catalog SML2345). In the presence or absence of these effectors, secretion assay was performed sequentially as shown in Supplemental Table 5. […] Preclustering of Ephrin-A5 Fc was done by mixing Ephrin-A5 Fc or Fc alone (BioLegend, catalog 790102) with anti-Fc antibody (Invitrogen, catalog A16086) (1:10 molar ratio) 20 minutes before treatment ([62]). […] Shedding of cleaved EphA4 was measured from the cell culture medium. Experiments were performed by dispersion of 200 islets, and EphA4 levels in media were measured by EphA4 ELISA (ABclonal, catalog RK06572).
The Integrated Islet Distribution Program provided us human donor islets with their characteristics (Supplemental Table 6). Islets were centrifuged at 500g for 3 minutes, resuspended in CMRL 1066 medium (Gibco, catalog 1150-037) containing 11 mM glucose, and rested in an incubator overnight.
For the hormone secretion assay, islets or dispersed islet cells were adapted in KRBH buffer containing 11 mM glucose for 1 hour. Then, after 2 washes in HBSS containing 11 mM glucose, islets or cells were treated in the following sequential order in the presence or absence of WCDD301: incubation in KRBH (1 mM glucose, 30 minutes) followed by medium collection, incubation in KRBH (11 mM glucose, 30 minutes) followed by medium collection.

For the next assay, the system named is diabetic NOD mice. The assay can be described thus: Plasma glucagon in NOD mice after treatment. It counts as in vivo, mouse. Set-up: Plasma glucagon: unit not given beside the values. The method, then:
Terminal blood was collected into microfuge tubes containing K2-EDTA (supplemented by 45 mM phenylmethylsulphonyl fluoride and 0.77 μM aprotinin) through cardiac puncture. Plasma was separated by centrifugation (2,000g for 10 minutes at 4°C) and kept at –80°C until analysis. Plasma samples with hemolysis were excluded from the study. […] Values of BUN, creatinine, ALB, ALT, and AST were determined by a Roche Cobas C501 Autoanalyzer as performed by the Washington University Diabetes Research Center Translational Diagnostics Core. Reference intervals of blood chemistry parameters for inbred NOD mice were extracted from the Mouse Phenome Database (https://phenome.jax.org/).

Structures are written as SMILES. Where “and” joins values, the source holds several entries; their conditions need not be identical. Equal entries are not always repeated.

For `CC(=O)OCC(N)(COC(C)=O)COC(C)=O` [WCDD301, 2-(acetoxymethyl)-2-aminopropane-1,3-diyl diacetate], the “Effect on insulin secretion” value in assay [1] (dispersed islet cells from donors with long-standing T1D) is given as “no effect on the minimal residual insulin secretion”. The Secretion of insulin is 0.0567 and 0.08 in assay [1] (1 mM glucose); 0.07 and 0.05 in assay [1] (11 mM glucose). The Plasma glucagon with diabetic NOD mice (WCDD301-treated diabetic NOD mice, per mouse, Figure 6B) is 22.15 and 11 and 44 and 25 and 47. The “Effect on plasma glucagon” value in the assay with diabetic NOD mice (diabetic NOD mice) is “suppression of glucagon levels”.
